Data: ChEMBL document CHEMBL3885881, “DrugMatrix”

Species: Rattus norvegicus
Experiment: DrugMatrix - Regimen: Daily Repeat
Format: toxicity, organism-based, Sprague-Dawley
Design: regimen Daily Repeat, gender Male, age 6-8 weeks
Settings: in vivo, po, route oral GAVAGE, […]; for ABSOLUTE BASOPHIL / ABSOLUTE EOSINOPHIL / ABSOLUTE LYMPHOCYTE / ABSOLUTE MONOCYTE / ABSOLUTE SEGMENTED NEUTROPHIL / BASOPHIL / EOSINOPHIL / ERYTHROCYTE COUNT / HEMATOCRIT / HEMOGLOBIN / LEUKOCYTE COUNT / LYMPHOCYTE / MEAN CORPUSCULAR HEMOGLOBIN / MEAN CORPUSCULAR VOLUME / MONOCYTE / NEUTROPHIL / NUCLEATED RED BLOOD CELLS / PLATELET COUNT: tissue Blood; for ALANINE AMINOTRANSFERASE / ALBUMIN / ALKALINE PHOSPHATASE / ASPARTATE AMINOTRANSFERASE / BLOOD UREA NITROGEN / CARBON DIOXIDE / CHLORIDE / CHOLESTEROL / CREATINE PHOSPHOKINASE / CREATININE / GLUCOSE / LACTATE DEHYDROGENASE / LIPASE / PHOSPHORUS / POTASSIUM / SODIUM / TOTAL BILIRUBIN / TOTAL PROTEIN / URIC ACID: tissue Plasma
[1] = 70 mg/kg, 120 h, dose level M1, time 5 day
[2] = 700 mg/kg, 72 h, dose level High, time 3 day
[3] = 700 mg/kg, 120 h, dose level High, time 5 day

## CCCCCCCCc1ccc(O)cc1 [4-OCTYLPHENOL]
[1]
  ABSOLUTE BASOPHIL: 0 CELLS/uL
  ABSOLUTE EOSINOPHIL: 194 CELLS/uL
  ABSOLUTE LYMPHOCYTE: 9540.33 CELLS/uL
  ABSOLUTE MONOCYTE: 80.33 CELLS/uL
  ABSOLUTE SEGMENTED NEUTROPHIL: 918.67 CELLS/uL
  BASOPHIL: 0%
  EOSINOPHIL: 1.67%
  ERYTHROCYTE COUNT: 5.98 x10E6/uL
  HEMATOCRIT: 36.37%
  HEMOGLOBIN: 13.77 G/DL
  LEUKOCYTE COUNT: 10.73 x10E3/uL
  LYMPHOCYTE: 88.67%
  MEAN CORPUSCULAR HEMOGLOBIN: 23.03 pg
  MEAN CORPUSCULAR VOLUME: 60.9 fL
  MONOCYTE: 0.67%
  NEUTROPHIL: 9%
  NUCLEATED RED BLOOD CELLS: 0.33 /100WBC
  PLATELET COUNT: 1062 x10E3/uL
  ALANINE AMINOTRANSFERASE: 72 u/L
  ALBUMIN: 4.1 G/DL
  ALKALINE PHOSPHATASE: 380.67 u/L
  ASPARTATE AMINOTRANSFERASE: 88.67 u/L
  BLOOD UREA NITROGEN: 16.67 mg/dL
  CARBON DIOXIDE: 27 mmol/L
  CHLORIDE: 102.33 MEQ/L
  CHOLESTEROL: 57.67 mg/dL
  CREATINE PHOSPHOKINASE: 355.33 u/L
  CREATININE: 0.18 mg/dL
  GLUCOSE: 157.33 mg/dL
  LACTATE DEHYDROGENASE: 260.67 u/L
  LIPASE: 11.67 u/L
  PHOSPHORUS: 11.13 mg/dL
  POTASSIUM: 5.91 MEQ/L
  SODIUM: 142.87 MEQ/L
  TOTAL BILIRUBIN: 0.17 mg/dL
  TOTAL PROTEIN: 5.87 G/DL
  URIC ACID: 1.6 mg/dL
[2]
  ABSOLUTE BASOPHIL: 0 CELLS/uL
  ABSOLUTE EOSINOPHIL: 0 CELLS/uL
  ABSOLUTE LYMPHOCYTE: 8011 CELLS/uL
  ABSOLUTE MONOCYTE: 200 CELLS/uL
  ABSOLUTE SEGMENTED NEUTROPHIL: 2522.33 CELLS/uL
  BASOPHIL: 0%
  EOSINOPHIL: 0%
  ERYTHROCYTE COUNT: 6.31 x10E6/uL
  HEMATOCRIT: 38.63%
  HEMOGLOBIN: 14.83 G/DL
  LEUKOCYTE COUNT: 10.73 x10E3/uL
  LYMPHOCYTE: 73.33%
  MEAN CORPUSCULAR HEMOGLOBIN: 23.5 pg
  MEAN CORPUSCULAR VOLUME: 61.27 fL
  MONOCYTE: 2%
  NEUTROPHIL: 24.67%
  NUCLEATED RED BLOOD CELLS: 0.67 /100WBC
  PLATELET COUNT: 1294.33 x10E3/uL
  ALANINE AMINOTRANSFERASE: 165.67 u/L
  ALBUMIN: 3.93 G/DL
  ALKALINE PHOSPHATASE: 493 u/L
  ASPARTATE AMINOTRANSFERASE: 140.33 u/L
  BLOOD UREA NITROGEN: 33.33 mg/dL
  CARBON DIOXIDE: 26.67 mmol/L
  CHLORIDE: 97.67 MEQ/L
  CHOLESTEROL: 169.67 mg/dL
  CREATINE PHOSPHOKINASE: 748 u/L
  CREATININE: 0.58 mg/dL
  GLUCOSE: 147.33 mg/dL
  LACTATE DEHYDROGENASE: 302.33 u/L
  LIPASE: 10.33 u/L
  PHOSPHORUS: 12.5 mg/dL
  POTASSIUM: 5.29 MEQ/L
  SODIUM: 140.03 MEQ/L
  TOTAL BILIRUBIN: 0.9 mg/dL
  TOTAL PROTEIN: 6.17 G/DL
  URIC ACID: 1.03 mg/dL
[3]
  ABSOLUTE BASOPHIL: 0 CELLS/uL
  ABSOLUTE EOSINOPHIL: 0 CELLS/uL
  ABSOLUTE LYMPHOCYTE: 7185 CELLS/uL
  ABSOLUTE MONOCYTE: 222.33 CELLS/uL
  ABSOLUTE SEGMENTED NEUTROPHIL: 759.33 CELLS/uL
  BASOPHIL: 0%
  EOSINOPHIL: 0%
  ERYTHROCYTE COUNT: 7.06 x10E6/uL
  HEMATOCRIT: 42.33%
  HEMOGLOBIN: 15.83 G/DL
  LEUKOCYTE COUNT: 8.17 x10E3/uL
  LYMPHOCYTE: 85%
  MEAN CORPUSCULAR HEMOGLOBIN: 22.53 pg
  MEAN CORPUSCULAR VOLUME: 60.13 fL
  MONOCYTE: 3.33%
  NEUTROPHIL: 11.67%
  NUCLEATED RED BLOOD CELLS: 0 /100WBC
  PLATELET COUNT: 1069.33 x10E3/uL
  ALANINE AMINOTRANSFERASE: 175.67 u/L
  ALBUMIN: 4.03 G/DL
  ALKALINE PHOSPHATASE: 554.67 u/L
  ASPARTATE AMINOTRANSFERASE: 104 u/L
  BLOOD UREA NITROGEN: 17 mg/dL
  CARBON DIOXIDE: 27.67 mmol/L
  CHLORIDE: 100 MEQ/L
  CHOLESTEROL: 150.33 mg/dL
  CREATINE PHOSPHOKINASE: 369 u/L
  CREATININE: 0.37 mg/dL
  GLUCOSE: 133 mg/dL
  LACTATE DEHYDROGENASE: 179.33 u/L
  LIPASE: 10.67 u/L
  PHOSPHORUS: 11.13 mg/dL
  POTASSIUM: 6.27 MEQ/L
  SODIUM: 143.2 MEQ/L
  TOTAL BILIRUBIN: 0.3 mg/dL
  TOTAL PROTEIN: 6.37 G/DL
  URIC ACID: 1.23 mg/dL
